Assay: Henry solubility constant Hcp at 298.15 K (mol/(m3 Pa))
Settings: reference: Bamford et al. (2002)

Structure (SMILES) | Henry solubility constant Hcp
Clc1cc(-c2cc(Cl)c(Cl)c(Cl)c2Cl)c(Cl)c(Cl)c1Cl [2,2',3,3',4,4',5,5'-octachlorobiphenyl] | 0.1
Clc1ccc(-c2c(Cl)c(Cl)cc(Cl)c2Cl)c(Cl)c1Cl [2,2',3,3',4,5',6'-heptachlorobiphenyl] | 0.021
Clc1cc(-c2c(Cl)ccc(Cl)c2Cl)c(Cl)c(Cl)c1Cl [2,2',3,3',4,5,6'-heptachlorobiphenyl] | 0.022
Clc1cccc(-c2ccc(Cl)c(Cl)c2Cl)c1Cl [2,2',3,3',4-pentachlorobiphenyl] | 0.027
Clc1cc(Cl)c(Cl)c(-c2c(Cl)ccc(Cl)c2Cl)c1 [2,2',3,3',5,6'-hexachlorobiphenyl] | 0.015
Clc1cc(Cl)c(Cl)c(-c2cccc(Cl)c2Cl)c1 [2,2',3,3',5-pentachlorobiphenyl] | 0.023
Clc1ccc(Cl)c(-c2c(Cl)ccc(Cl)c2Cl)c1Cl [2,2',3,3',6,6'-hexachlorobiphenyl] | 0.009
Clc1cccc(-c2cccc(Cl)c2Cl)c1Cl [2,2',3,3'-tetrachlorobiphenyl] | 0.036
Clc1cc(Cl)c(-c2c(Cl)ccc(Cl)c2Cl)cc1Cl [2,2',3,4',5',6-hexachlorobiphenyl] | 0.015
Clc1cc(Cl)c(-c2cccc(Cl)c2Cl)cc1Cl [2,2',3,4',5'-pentachlorobiphenyl] | 0.023
Clc1cc(Cl)c(Cl)c(-c2cc(Cl)c(Cl)cc2Cl)c1 [2,2',3,4',5,5'-hexachlorobiphenyl] | 0.017
Clc1ccc(-c2c(Cl)ccc(Cl)c2Cl)c(Cl)c1 [2,2',3,4',6-pentachlorobiphenyl] | 0.019
Clc1ccc(-c2cccc(Cl)c2Cl)c(Cl)c1 [2,2',3,4'-tetrachlorobiphenyl] | 0.028
Clc1cc(Cl)c(-c2c(Cl)cc(Cl)c(Cl)c2Cl)cc1Cl [2,2',3,4,4',5',6-heptachlorobiphenyl] | 0.017
Clc1cc(Cl)c(-c2cc(Cl)c(Cl)c(Cl)c2Cl)c(Cl)c1 [2,2',3,4,4',5,6'-heptachlorobiphenyl] | 0.017
Clc1ccc(-c2cc(Cl)c(Cl)c(Cl)c2Cl)c(Cl)c1 [2,2',3,4,4',5-hexachlorobiphenyl] | 0.045
Clc1ccc(-c2ccc(Cl)c(Cl)c2Cl)c(Cl)c1 [2,2',3,4,4'-pentachlorobiphenyl] | 0.023
Clc1ccc(Cl)c(-c2cc(Cl)c(Cl)c(Cl)c2Cl)c1 [2,2',3,4,5,5'-hexachlorobiphenyl] | 0.02
Clc1ccc(-c2c(Cl)cccc2Cl)c(Cl)c1Cl [2,2',3,4,6'-pentachlorobiphenyl] | 0.022
Clc1ccc(Cl)c(-c2c(Cl)ccc(Cl)c2Cl)c1 [2,2',3,5',6-pentachlorobiphenyl] | 0.021
Clc1cccc(-c2c(Cl)cccc2Cl)c1Cl [2,2',3,6'-tetrachlorobiphenyl] | 0.03
Clc1ccccc1-c1cccc(Cl)c1Cl [2,2',3-trichlorobiphenyl] | 0.042
Clc1ccc(-c2cc(Cl)c(Cl)cc2Cl)c(Cl)c1 [2,2',4,4',5-pentachlorobiphenyl] | 0.021
Clc1ccc(-c2cc(Cl)ccc2Cl)c(Cl)c1 [2,2',4,5'-tetrachlorobiphenyl] | 0.027
Clc1cc(Cl)c(-c2ccccc2Cl)cc1Cl [2,2',4,5-tetrachlorobiphenyl] | 0.027
Clc1ccc(-c2ccccc2Cl)c(Cl)c1 [2,2',4-trichlorobiphenyl] | 0.033

Structure (SMILES) | Henry solubility constant Hcp
Clc1ccccc1-c1c(Cl)cccc1Cl [2,2',6-trichlorobiphenyl] | 0.033
Clc1ccccc1-c1ccccc1Cl [2,2'-dichlorobiphenyl] | 0.046
Clc1ccc(Cl)c(-c2ccc(Cl)c(Cl)c2)c1 [2,3',4',5-tetrachlorobiphenyl] | 0.033
Clc1ccc(-c2ccccc2Cl)cc1Cl [2,3',4'-trichlorobiphenyl] | 0.036
Clc1cc(Cl)c(-c2cc(Cl)c(Cl)c(Cl)c2)cc1Cl [2,3',4,4',5,5'-hexachlorobiphenyl] | 0.027
Clc1cc(Cl)c(-c2ccc(Cl)c(Cl)c2)c(Cl)c1 [2,3',4,4',6-pentachlorobiphenyl] | 0.015
Clc1cccc(-c2ccc(Cl)cc2Cl)c1 [2,3',4-trichlorobiphenyl] | 0.033
Clc1cccc(-c2cc(Cl)ccc2Cl)c1 [2,3',5-trichlorobiphenyl] | 0.035
Clc1cccc(-c2ccccc2Cl)c1 [2,3'-dichlorobiphenyl] | 0.043
Clc1cc(-c2c(Cl)c(Cl)cc(Cl)c2Cl)cc(Cl)c1Cl [2,3,3',4',5,5',6-heptachlorobiphenyl] | 0.032
Clc1cc(Cl)c(Cl)c(-c2ccc(Cl)c(Cl)c2)c1 [2,3,3',4',5-pentachlorobiphenyl] | 0.043
Clc1ccc(-c2c(Cl)ccc(Cl)c2Cl)cc1Cl [2,3,3',4',6-pentachlorobiphenyl] | 0.023
Clc1ccc(-c2cccc(Cl)c2Cl)cc1Cl [2,3,3',4'-tetrachlorobiphenyl] | 0.038
Clc1cc(-c2ccc(Cl)c(Cl)c2Cl)cc(Cl)c1Cl [2,3,3',4,4',5'-hexachlorobiphenyl] | 0.034
Clc1ccc(-c2cc(Cl)c(Cl)c(Cl)c2Cl)cc1Cl [2,3,3',4,4',5-hexachlorobiphenyl] | 0.029
Clc1ccc(-c2c(Cl)cc(Cl)c(Cl)c2Cl)cc1Cl [2,3,3',4,4',6-hexachlorobiphenyl] | 0.021
Clc1ccc(-c2cc(Cl)cc(Cl)c2Cl)cc1 [2,3,4',5-tetrachlorobiphenyl] | 0.025
Clc1ccc(-c2c(Cl)ccc(Cl)c2Cl)cc1 [2,3,4',6-tetrachlorobiphenyl] | 0.025
Clc1ccc(Cl)c(-c2ccccc2)c1Cl [2,3,6-trichlorobiphenyl] | 0.033
Clc1cccc(-c2ccccc2)c1Cl [2,3-dichlorobiphenyl] | 0.043
Clc1ccc(-c2cc(Cl)ccc2Cl)cc1 [2,4',5-trichlorobiphenyl] | 0.034
Clc1ccc(-c2ccccc2)c(Cl)c1 [2,4-dichlorobiphenyl] | 0.037
Clc1cc(-c2cc(Cl)c(Cl)c(Cl)c2)cc(Cl)c1Cl [3,3',4,4',5,5'-hexachlorobiphenyl] | 0.047
Clc1ccc(-c2cccc(Cl)c2)cc1 [3,4'-dichlorobiphenyl] | 0.049
Clc1ccc(-c2cc(Cl)c(Cl)c(Cl)c2)cc1 [3,4,4',5-tetrachlorobiphenyl] | 0.041
